Test results as given in paper PMC7753147, “High-throughput determination of protein affinities using unmodified peptide libraries in nanomolar scale” (iScience, 2020).
pKi: −log10 of the molar value. Where a SMILES comes first, the peptide text is derived from it.

Target: T1, gephE (Rattus norvegicus, UniProt Q03555)
T1 construct: gephE (residues 318-736) was generated; made in house
T1 sequence (Q03555 350-768): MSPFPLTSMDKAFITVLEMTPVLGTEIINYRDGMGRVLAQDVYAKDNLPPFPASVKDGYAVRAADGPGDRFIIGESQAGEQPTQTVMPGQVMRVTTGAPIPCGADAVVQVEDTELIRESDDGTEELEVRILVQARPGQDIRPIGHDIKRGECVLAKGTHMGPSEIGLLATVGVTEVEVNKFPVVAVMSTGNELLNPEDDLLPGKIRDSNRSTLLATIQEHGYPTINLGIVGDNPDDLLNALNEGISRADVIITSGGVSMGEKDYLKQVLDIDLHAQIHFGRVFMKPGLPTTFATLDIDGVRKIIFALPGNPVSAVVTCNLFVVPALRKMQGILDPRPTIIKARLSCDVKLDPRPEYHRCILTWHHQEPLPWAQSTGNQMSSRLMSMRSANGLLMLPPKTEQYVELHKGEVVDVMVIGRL
Assay: TRIC displacement 12-point dose response against gephE-NN1D-Alexa647 complex
Assay type: binding

CC(C)C[C@H](NC(=O)[C@H](CO)NC(=O)[C@H](Cc1ccccc1)NC(=O)[C@H](CC(=O)O)NC(=O)[C@H](CC(N)=O)NC(=O)[C@H](CO)NC(=O)[C@H](CCCNC(=N)N)NC(=O)[C@H](CC(C)C)NC(=O)[C@@H](N)CC(=O)O)C(=O)N[C@H](C(=O)NCC(=O)N[C@@H](CO)C(=O)N[C@@H](CC(C)C)C(=O)N1CCC[C@H]1C(=O)N[C@@H](CCCNC(=N)N)C(N)=O)C(C)C [GlyRβ_Full_Positional_Scan_164] (H-DLRSNDFSLVGSLPR-NH2)
pKi: 4.65
